Data: patent US9605064B2, “Methods and compositions for treatment of skin disorders” (AbbVie Biotechnology Ltd, priority 2006, dated 2017)
Marks after values point to notes of the source that are not given here.

Tests used:
[1] = test system: patients with moderate to severe chronic plaque psoriasis; assay: DLQI, Phase II 12-week placebo-controlled trial with 48-week extension; type: in vivo, human; conditions: for Mean change in DLQI from baseline at Week 60: observed values; for DLQI = 0 / DLQI = 1 / DLQI = 2 / DLQI ≧ 3 / patients who achieved DLQI=0: pooled arms
Description: The DLQI is a validated instrument used to measure disease impact on daily function.
The DLQI is a validated instrument used to assess dermatologic-related functional limitations, and was used as the patient related outcomes (PRO) measure. The DLQI consists of ten items and an overall scoring range of 0-30, where higher scores represent greater quality of life impairment and lower scores represent lower quality of life impairment. The DLQI also includes well-established properties of reliability and validity for the DLQI total score in a dermatology setting and measures six subcategories: symptoms and feelings, daily activities, leisure, work/school, personal relationships, and treatment.
Patients who discontinued before the time point were not included in this analysis. Ranges of DLQI scores were evaluated for their correspondence to categories of disease impact and are described below in Table 1.
PROs were assessed using the DLQI. The DLQI is a validated instrument used to assess dermatologic-related functional limitations.

[2] = test system: patients with moderate to severe chronic plaque psoriasis; assay: Adverse events, open-label extension of CHAMPION
[3] = test system: patients with moderate to severe plaque psoriasis; assay: Adverse events and laboratory abnormalities, 12-week open-label weekly therapy then randomized eow or withdrawal
[4] = PASI 75-99 responders who had DLQI>0 at Week 60
[5] = PASI improvement 50-74 (n = 18), Week 60
[6] = PASI improvement 75-99 (n = 54), Week 60
[7] = PASI improvement 100 (n = 29), Week 60
[8] = PASI improvement <50 (n = 5), Week 60
[9] = patients with PASI 75-99, Week 60
[10] = patients with PASI 100, Week 60
[11] = through Week 24 of the OLE (N = 95), AEs occurring ≧5% of patients
[12] = through Week 24 of the OLE (N = 95), MTX patients transitioned to adalimumab 40 mg eow
[13] = Double-blind period Weeks 12-24, 40 mg eow (N = 68)
[14] = Open-label period Weeks 0-11, 40 mg weekly (N = 148)

## Adalimumab: a human anti-TNF mAb, described in U.S. Pat. No. 6,090,382 as D2E7 (HUMIRA, Abbott Laboratories)
[1]; 40 mg eow, week 12
  patients with change from large/extremely large DLQI impact at baseline to no/small impact: 85%
[1]; 40 mg eow, week 24
  patients with change from large/extremely large DLQI impact at baseline to no/small impact: 85%
[1]; 40 mg eow, week 36
  patients with change from large/extremely large DLQI impact at baseline to no/small impact: 83%
[1]; 40 mg eow, week 60
  patients with change from large/extremely large DLQI impact at baseline to no/small impact: 83%
[1]; 40 mg weekly, Week 12
  mean change in DLQI: −11.5*
  patients with change from large/extremely large DLQI impact at baseline to no/small impact: 86%
[1]; 40 mg weekly, week 24
  patients with change from large/extremely large DLQI impact at baseline to no/small impact: 88%
[1]; 40 mg weekly, week 36
  patients with change from large/extremely large DLQI impact at baseline to no/small impact: 91%
[1]; 40 mg weekly, week 60
  patients with change from large/extremely large DLQI impact at baseline to no/small impact: 100%
[1]; PASI 50-74
  Mean change in DLQI from baseline at Week 60: −8.8
[1]; PASI 75-99
  Mean change in DLQI from baseline at Week 60: −11.5
[1]; [4]
  embarrassment/self-consciousness because of skin condition: approximately 20%
  persistent symptoms of itching, soreness, pain, or stinging of the skin: approximately 50%
[1]; PASI 100
  Mean change in DLQI from baseline at Week 60: −11.1
[1]; PASI <50
  Mean change in DLQI from baseline at Week 60: −6.0
[1]; [5]
  DLQI = 0: 5 (28) n (%)
  DLQI = 1: 3 (17) n (%)
  DLQI = 2: 3 (17) n (%)
  DLQI ≧ 3: 7 (39) n (%)
[1]; [6]
  DLQI = 0: 20 (37) n (%)
  DLQI = 1: 19 (35) n (%)
  DLQI = 2: 4 (7) n (%)
  DLQI ≧ 3: 11 (20) n (%)
[1]; [7]
  DLQI = 0: 23 (79) n (%)
  DLQI = 1: 3 (10) n (%)
  DLQI = 2: 3 (10) n (%)
  DLQI ≧ 3: 0 (0) n (%)
[1]; [8]
  DLQI = 0: 0 (0) n (%)
  DLQI = 1: 1 (20.0) n (%)
  DLQI = 2: 2 (40) n (%)
  DLQI ≧ 3: 2 (40) n (%)
[1]; adalimumab-treated patients
  mean change in DLQI: ≥ 10 points
[1]; baseline PASI ≧10 and DLQI >10, 40 mg eow, Week 12
  DLQI mean change from baseline: −15
[1]; baseline PASI ≧10 and DLQI >10, 40 mg eow, Week 24
  DLQI mean change from baseline: −14
[1]; baseline PASI ≧10 and DLQI >10, 40 mg eow, Week 36
  DLQI mean change from baseline: −15
[1]; baseline PASI ≧10 and DLQI >10, 40 mg eow, Week 60
  DLQI mean change from baseline: −15
[1]; baseline PASI ≧10 and DLQI >10, 40 mg weekly, Week 12
  DLQI mean change from baseline: −16
[1]; baseline PASI ≧10 and DLQI >10, 40 mg weekly, Week 24
  DLQI mean change from baseline: −17
[1]; baseline PASI ≧10 and DLQI >10, 40 mg weekly, Week 36
  DLQI mean change from baseline: −18
[1]; baseline PASI ≧10 and DLQI >10, 40 mg weekly, Week 60
  DLQI mean change from baseline: −17
[1]; baseline PASI ≧10 and DLQI >10, placebo/adalimumab 40 mg eow, Week 24
  DLQI mean change from baseline: −12
[1]; baseline PASI ≧10 and DLQI >10, placebo/adalimumab 40 mg eow, Week 36
  DLQI mean change from baseline: −14
[1]; baseline PASI ≧10 and DLQI >10, placebo/adalimumab 40 mg eow, Week 60
  DLQI mean change from baseline: −12
[1]; baseline PASI ≧10 and DLQI >10, weekly, Week 60
  mean DLQI score: 0.7
[1]; from dosage escalation to Week 60, 18 of the 30 patients who switched to weekly dosing
  Mean improvement in DLQI: 2.1
[1]; of the total 106 patients receiving adalimumab at Week 60
  patients who achieved DLQI=0: 48 patients
[1]; patients receiving adalimumab at Week 60
  patients who achieved DLQI=0: approximately 45%
[1]; patients with 50-74, Week 60
  patients who achieved a DLQI=0: 28%
[1]; patients with PASI 50-74, Week 60
  mean change in DLQI from baseline: −8
[1]; [9]
  mean change in DLQI from baseline: −11.5
  patients who achieved a DLQI=0: 37%
[1]; [10]
  mean change in DLQI from baseline: −11.1
  patients who achieved a DLQI=0: 79%
[1]; patients with PASI<50, Week 60
  mean change in DLQI from baseline: −6
[1]; placebo patients switched to adalimumab at week 12, week 24
  patients with change from large/extremely large DLQI impact at baseline to no/small impact: 67%
[1]; placebo patients switched to adalimumab at week 12, week 36
  patients with change from large/extremely large DLQI impact at baseline to no/small impact: 79%
[1]; placebo patients switched to adalimumab at week 12, week 60
  patients with change from large/extremely large DLQI impact at baseline to no/small impact: 71%
[1]; randomized to adalimumab, week 12
  patients with change from large/extremely large DLQI impact at baseline to no/small impact: 85%
[2]; first 24 weeks of the OLE
  rebound: No cases of rebound were observed
[2]; [11]
  Injection-site reaction, Percentage of Patients: 5%
  Nasopharyngitis, Percentage of Patients: 6%
[2]; [12]
  AEs leading to withdrawal, Percentage of Patients: 1%
  Any AE, Percentage of Patients: 47%
  Any malignancy, Percentage of Patients: 0%
  Rebound psoriasis, Percentage of Patients: 0%
  Serious AE, Percentage of Patients: 5%
[3]; 24-week trial
  patients with serious adverse events: Four patients
  tuberculosis or other opportunistic infections, lymphoma, melanoma, other malignancies, demyelinating disorders, lupus-like syndromes, congestive heart failure: No patients developed
[3]; [13]
  Any AE: 46 (67.6) n (%)
  Any AEs leading to discontinuation: 2 (2.9) n (%)
  Any SAE: 2 (2.9) n (%)
  Arthralgia: 5 (7.4) n (%)
  Headache: 1 (1.5) n (%)
  Injection site reaction: 4 (5.9) n (%)
  Nasopharyngitis: 3 (4.4) n (%)
[3]; [14]
  Any AE: 105 (70.9) n (%)
  Any AEs leading to discontinuation: 1 (0.7) n (%)
  Any SAE: 2 (1.4) n (%)
  Arthralgia: 4 (2.7) n (%)
  Headache: 11 (7.4) n (%)
  Injection site reaction: 17 (11.5) n (%)
  Nasopharyngitis: 11 (7.4) n (%)
[3]; Week 12
  ALT elevation greater than 2.5 times the upper limit of normal: No patients
[3]; adalimumab eow group, Week 24
  ALT elevation greater than 2.5 times the upper limit of normal: One patient
[3]; adalimumab eow group, Weeks 12-24
  arthralgias: 7.4%
[3]; of the 148 patients who received at least one dose
  patients who withdrew because of an adverse event: three
[3]; three patients classified by investigators as rebounders
  rebound (pre-specified definition): None of the three patients met the study's pre-specified definition of rebound
